Measured values: patent publication US10472341B2, “Bicyclic tetrahydrothiazepine derivatives useful for the treatment of neoplastic and/or infectious diseases” (APEIRON BIOLOGICS AG, priority 2015, dated 2019)

Assays:
[1] = test system: PBMCs & tumor cell lines (K562, Panc1, BxPc3, HT-29, A549, HTB46, HTB47, A375, M21, SKBR3, CRL2505); test: PBMCs alone or in co-culture with tumor cells of diverse origin: cytokines and granzyme; format: cell-based, human; details: for Granzyme / IFN-gamma / IL-2: 3 μM
Protocol: Isolated PBMCs, NK cells or CD8 positive cells were plated in Xvivo medium at 1.5*10^5 cells per in 96 well culture plates in the presence of 0.3*10^4 tumor cells where indicated. Cytokine secretion was determined by ELISA, immune cell activation (using Beckman-Coulter Abs CD25-PC5, CD69-PC7), cell viability and numbers by flow cytometry (Beckman-Coulter FC500 or Gallios) using 7-AAD exclusion as criterion for living cells. The tumor cell lines M21 and K562 represent two widely used tumor lines of melanoma and leukemia origin, respectively. However, tumor cells are known to employ different mechanisms to suppress immune functions, therefore it was investigated if the effects of compounds on immune cell activities against tumor cells can be generalized to a wide array of tumor cells of very diverse origins from different types of tumors. PBMCs were isolated and incubated with and without compounds, either alone or in co-culture with different tumor cells.

non-stimulated PBMCs = test: Non-stimulated PBMCs: cytokine secretion and signs of T-cell activation; format: cell-based, human
Excerpt: This is an important finding for compounds that shall selectively act on T cells which have been activated by presence of antigen from pathogens or tumors, but shall not lead to an unwanted general activation of all T cells of a patient.

[2] = test system: aCD3/aCD28-stimulated human CD4+-T-cells; test: IL-2 production and activation markers in aCD3/aCD28 stimulated isolated human CD4+-T-cells; format: cell-based; details: IL-2 production at 3 μM compound
Method in brief: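 CD4+ T cells isolated from buffy-coat PBMCs by microbeads were plated in Xvivo medium (1.5*10^5 cells/well) and stimulated with anti-CD3/28 mAbs plus compound. IL-2 measured by ELISA in supernatants at 24 h or 48 h; CD25 and proliferation by flow cytometry, CD69 at 24 h. Activity classes based on IL-2 at 3 μM compound.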

[3] = test system: immune cells & anti-GD2-antibodies bound on M21 melanoma cells; test: Immune cells stimulated by anti-GD2-antibody bound on M21 melanoma cells: TNF-alpha, activated NK cells; format: cell-based, human
Protocol: Isolated PBMCs, NK cells or CD8 positive cells were plated in Xvivo medium at 1.5*10^5 cells per in 96 well culture plates in the presence of 0.3*10^4 tumor cells where indicated. Cytokine secretion was determined by ELISA, immune cell activation (using Beckman-Coulter Abs CD25-PC5, CD69-PC7), cell viability and numbers by flow cytometry (Beckman-Coulter FC500 or Gallios) using 7-AAD exclusion as criterion for living cells. […] Antibodies that are bound to pathogens or pathogen-infected cells trigger activation of immune cells via Fc-receptors, that are expressed particularly on NK cells and myeloid cells. This mechanism is also utilized for cancer therapies when therapeutic antibodies against antigens which are preferentially expressed on cancer cells are administrated to patients which in turn recruit and activate immune cells to directly attack cancer cells. The GD2-antigen is strongly expressed on cancer cells of particular origins (among neuroblastoma and melanoma) and is therefore developed clinically as anti-cancer therapy. For M21 melanoma cells, GD2 is the only antigen that has been characterized to be accessible as tumor antigen. Therefore, an anti-GD2-antibody that was available in clinically grade quality was employed to test whether compounds can enhance the Fc-receptor mediated activation of immune cells to tumor-cell bound therapeutic antibodies.

[4] = PBMC & M21 tumor cells & anti-GD2 Ab high concentration, 0.3 μM
[5] = PBMC & M21 tumor cells & anti-GD2 Ab high concentration, 1 μM
[6] = PBMC & M21 tumor cells & anti-GD2 Ab high concentration, 3 μM
[7] = PBMC & M21 tumor cells & anti-GD2 Ab high concentration, 10 μM
[8] = PBMC & M21 tumor cells & anti-GD2 Ab low concentration, 0.3 μM
[9] = PBMC & M21 tumor cells & anti-GD2 Ab low concentration, 1 μM
[10] = PBMC & M21 tumor cells & anti-GD2 Ab low concentration, 3 μM
[11] = PBMC & M21 tumor cells & anti-GD2 Ab low concentration, 10 μM
[12] = PBMC & M21 tumor cells only, 0.3 μM
[13] = PBMC & M21 tumor cells only, 1 μM
[14] = PBMC & M21 tumor cells only, 3 μM
[15] = PBMC & M21 tumor cells only, 10 μM

Cl.N[C@H]1CSc2cc(F)c(C(=O)NCCCC(F)(F)F)cc2N(Cc2ccc(Cl)cc2)C1=O [Example 40, (3R)-3-amino-5-[(4-chlorophenyl)methyl]-8-fluoro-4-oxo-N-(4,4,4-trifluorobutyl)-2,3,4,5-tetrahydro-1,5-benzothiazepine-7-carboxamide hydrochloride]
Granzyme ([1]; PBMC & A375): 0.053 ng/mL
IFN-gamma ([1]; PBMC & A375): 0.142 ng/mL
IL-2 ([1]; PBMC & A375): 0.278 ng/mL
Granzyme ([1]; PBMC & A549): 0.020 ng/mL
IFN-gamma ([1]; PBMC & A549): 0.214 ng/mL
IL-2 ([1]; PBMC & A549): 0.018 ng/mL
Granzyme ([1]; PBMC & BxPc3): 0.008 ng/mL
IFN-gamma ([1]; PBMC & BxPc3): 0.088 ng/mL
IL-2 ([1]; PBMC & BxPc3): 0.092 ng/mL
Granzyme ([1]; PBMC & CRL2505): 0.780 ng/mL
IFN-gamma ([1]; PBMC & CRL2505): 0.663 ng/mL
IL-2 ([1]; PBMC & CRL2505): 0.012 ng/mL
Granzyme ([1]; PBMC & HT-29): 0.003 ng/mL
IFN-gamma ([1]; PBMC & HT-29): 0.022 ng/mL
IL-2 ([1]; PBMC & HT-29): 0.033 ng/mL
Granzyme ([1]; PBMC & HTB46): 0.404 ng/mL
IFN-gamma ([1]; PBMC & HTB46): 0.665 ng/mL
IL-2 ([1]; PBMC & HTB46): 0.168 ng/mL
Granzyme ([1]; PBMC & HTB47): 0.072 ng/mL
IFN-gamma ([1]; PBMC & HTB47): 0.277 ng/mL
IL-2 ([1]; PBMC & HTB47): 0.075 ng/mL
Granzyme ([1]; PBMC & K562): 0.011 ng/mL
IFN-gamma ([1]; PBMC & K562): 0.000 ng/mL
IL-2 ([1]; PBMC & K562): 0.000 ng/mL
Granzyme ([1]; PBMC & M21): 0.001 ng/mL
IFN-gamma ([1]; PBMC & M21): 0.000 ng/mL
IL-2 ([1]; PBMC & M21): 0.037 ng/mL
Granzyme ([1]; PBMC & Panc1): 0.005 ng/mL
IFN-gamma ([1]; PBMC & Panc1): 0.000 ng/mL
IL-2 ([1]; PBMC & Panc1): 0.013 ng/mL
Granzyme ([1]; PBMC & SKBR3): 0.001 ng/mL
IFN-gamma ([1]; PBMC & SKBR3): 0.000 ng/mL
IL-2 ([1]; PBMC & SKBR3): 0.005 ng/mL
Granzyme ([1]; PBMC only): 0.001 ng/mL
IFN-gamma ([1]; PBMC only): 0.000 ng/mL
IL-2 ([1]; PBMC only): 0.000 ng/mL
secretion of cytokines (IL-2, IFN-gamma) and granzyme ([1]; PBMCs in co-culture with diverse tumor cell lines): enhanced secretion of cytokines and granzyme strongly specifically upon tumor cell contact in diverse tumor cell lines
enhancement of cytokine and granzyme secretion ([1]; PBMCs in the absence of tumor cells): such effect was not detected in the absence of tumor cells
cytokine secretion or other signs of T-cell activation (non-stimulated PBMCs): did not enhance cytokine secretion or other signs of T-cell activation
Activity Class CD4+ [2]: B (IL-2 production at 3 μM compound concentration between 2-10 ng/mL)
TNF-alpha [3, 4]: 106.30 pg/mL
strongly activated NK cells [3, 4]: 23.55 % CD25+CD69+
TNF-alpha [3, 5]: 142.98 pg/mL
strongly activated NK cells [3, 5]: 32.63 % CD25+CD69+
TNF-alpha [3, 6]: 192.34 pg/mL
strongly activated NK cells [3, 6]: 42.50 % CD25+CD69+
TNF-alpha [3, 7]: 257.96 pg/mL
strongly activated NK cells [3, 7]: 42.22 % CD25+CD69+
TNF-alpha [3, 8]: 36.53 pg/mL
strongly activated NK cells [3, 8]: 6.92 % CD25+CD69+
TNF-alpha [3, 9]: 55.72 pg/mL
strongly activated NK cells [3, 9]: 11.88 % CD25+CD69+
TNF-alpha [3, 10]: 93.25 pg/mL
strongly activated NK cells [3, 10]: 17.22 % CD25+CD69+
TNF-alpha [3, 11]: 114.88 pg/mL
strongly activated NK cells [3, 11]: 20.25 % CD25+CD69+
TNF-alpha [3, 12]: 17.47 pg/mL
strongly activated NK cells [3, 12]: 0.75 % CD25+CD69+
TNF-alpha [3, 13]: 17.59 pg/mL
strongly activated NK cells [3, 13]: 1.10 % CD25+CD69+
TNF-alpha [3, 14]: 28.95 pg/mL
strongly activated NK cells [3, 14]: 2.40 % CD25+CD69+
TNF-alpha [3, 15]: 38.00 pg/mL
strongly activated NK cells [3, 15]: 2.19 % CD25+CD69+
reactivity of immune cells to anti-GD2-antibodies bound on M21 melanoma cells ([3]; cytokine secretion, NK cell activation): enhanced reactivity of immune cells to anti-GD2-antibodies bound on M21 melanoma cells, resulting in increased secretion of cytokine and activation of NK cells
